For this experiment, the target named is T1, glucosylceramidase (GCase, GBA) in human fibroblast cell line GM10915 harboring the L444P GBA mutation (Homo sapiens, UniProt P04062, L483P).
T1 construct: Human fibroblast cell line GM10915 harboring the L444P GBA mutation; host or cells: GM10915 human fibroblasts
T1 sequence (P04062 40-536 L483P): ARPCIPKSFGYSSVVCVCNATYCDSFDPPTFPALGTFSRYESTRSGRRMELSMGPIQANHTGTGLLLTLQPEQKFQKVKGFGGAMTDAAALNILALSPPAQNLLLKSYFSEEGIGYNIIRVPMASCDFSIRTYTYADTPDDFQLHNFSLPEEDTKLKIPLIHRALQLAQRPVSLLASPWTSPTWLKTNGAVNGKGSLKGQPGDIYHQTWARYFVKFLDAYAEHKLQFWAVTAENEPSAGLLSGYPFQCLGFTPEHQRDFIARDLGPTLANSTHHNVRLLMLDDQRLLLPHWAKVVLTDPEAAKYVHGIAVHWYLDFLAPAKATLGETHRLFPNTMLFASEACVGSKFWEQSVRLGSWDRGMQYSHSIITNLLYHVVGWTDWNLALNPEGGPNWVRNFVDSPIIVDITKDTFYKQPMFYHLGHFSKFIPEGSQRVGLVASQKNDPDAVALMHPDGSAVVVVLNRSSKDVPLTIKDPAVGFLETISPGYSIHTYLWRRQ
The experiment can be described thus: GCase activity assay (4-MUG substrate, normalised to crystal violet staining) in GM10915 fibroblasts. Type of experiment: cell-based. The settings on record: five days exposure; for GBA EC1.5: concentration where Percent GCase activity = 150% (1.5-fold induction), 8-point dose range; for Emax / GBA Emax: maximum Percent GCase activity relative to untreated cells in the dose range tested. On the procedure: Human fibroblast cell line GM10915 harboring the L444P GBA mutation was obtained from Coriell Biorepositories. All chemicals (Glacial acetic acid, Glycine, 4-Methylumbelliferyl b-D-glucopyranoside (4-MUG), Sodium acetate trihydrate, Sodium hydroxide, Crystal violet, SDS, Ammonium hydroxide) were obtained from Sigma-Aldrich (Denmark). Compounds tested for GCase activity were dissolved in H2O or DMSO.
The GM10915 cell line was cultured under standard cell culture conditions (37° C. and 5% CO2) in complete DMEM medium supplemented with nonessential amino acids (NEAA), 1% Pen-Strep and 12% FCS. Cells were seeded at a density of 10^4 cells/well in 100 μL complete medium in one black 96-well plate for glucosylceramidase (GCase) activity measurement and in one clear 96-well plate for crystal violet staining to correct for cell density. Crystal violet staining is performed to obtain quantitative information about the relative density of cells adhering to multi-wells plates.
The assay was adapted from Sawkar et al (2002) and briefly described in the following. The day after seeding of cells, the medium was replaced with fresh medium containing the compounds to be tested. Compounds were tested in duplicate and in an 8-point diluted dose range to obtain a dose response. Cells were exposed with compounds for five days. Fresh compound was added every 2-3 days. PBS was included to define the basal level of GCase activity.
Cells were washed three times with 200 μL PBS per well and 50 μL of 2.5 mM 4-MUG buffer (4-MUG dissolved in 0.2 M acetate buffer pH 4.0) was added and the cells were incubated at 37° C., 5% CO2 for 23 hours. The reaction was stopped by adding 150 μL 0.2 M glycine buffer (pH 10.8). Fluorescence was measured with a Varioskan® Flash reader (Thermo Scientific) at an excitation/emission setting of 365/445 nm.
Cells were treated with compounds in a parallel setup identical to the setup to test for GCase activity. At the end of compound treatment, cells were washed once with 200 μL PBS per well and 50 μL 0.1% w/v crystal violet (in H2O) was added. Following 10 min. of incubation, the crystal violet solution was removed, and the cells were washed three times with 200 μL PBS and 100 μL 1% SDS was added to solubilize the stain. The plate was agitated on an orbital shaker for 10-30 min. Absorbance (A) is measured at […] using a Varioskan® Flash reader (Thermo Scientific).
The fluorescence signal (F) derived from the GCase measurement is normalized to the absorbance signal (A) derived from the crystal violet staining. The percent GCase activity resulting from compound treatment is calculated relative to the basal activity obtained from untreated cells.
Maximal effect of compounds (Emax) is determined from the dose response effects as the maximum “Percent GCase activity” achieved in the dose range tested.

The Emax is the greatest response seen or fitted, relative to the assay's reference. In the case of `COC(CO/N=C(\Cl)c1ccc(Cl)nc1)CN1CCCCC1` (stereo not drawn) [ID 503], the “GBA EC1.5” value turned out to be 50 µM and the Emax is 142%.
Take `OC(CON=C(Br)c1ccc(Cl)nc1)CN1CCCCC1` (stereo not drawn) [ID 504, 6-chloro-N-(2-hydroxy-3-(piperidin-1-yl)propoxy)nicotinimidoyl bromide]: the “GBA EC1.5” value was determined as 20 µM and the Emax stood at 310%.
For the compound `OC(CO/N=C(\Cl)C1(c2cnccn2)CCNCC1)CN1CCCCC1` (stereo not drawn) [ID 512], the “GBA EC1.5” value stood at 50 µM and the Emax was found to be 147%.
For `OC(CON=C(Cl)C1(c2ccccn2)CCNCC1)CN1CCCCC1` (stereo not drawn) [ID 534, N-(2-hydroxy-3-(piperidin-1-yl)propoxy)-4-(pyridin-2-yl)piperidine-4-carbimidoyl chloride tri-2,2,2-trifluoroacetate], in that order: 19 µM and 226%.
Turning to `OC(CO/N=C(\Cl)C1(Cc2cccnc2)CCNCC1)CN1CCCCC1` (stereo not drawn) [ID 550], where the note is “listed as 550”, the “GBA EC1.5” value turned out to be 27 µM and the “GBA Emax” value is 159%.
Regarding `OC(CON=C(Cl)CCN1CCCC1)CN1CCCCC1` (stereo not drawn) [ID 562, N-(2-hydroxy-3-(piperidin-1-yl)propoxy)-3-(pyrrolidin-1-yl)propanimidoyl chloride], the “GBA EC1.5” value came out at 3 µM and the Emax was 239%.
For `OC(CON=C(Cl)CCN1CCCCC1)CN1CCCCC1` (stereo not drawn) [ID 563, N-(2-hydroxy-3-(piperidin-1-yl)propoxy)-3-(piperidin-1-yl)propanimidoyl chloride], in that order: 3 µM and 211%.
`OC(CO/N=C(\Cl)CCN1CCNCC1)CN1CCCCC1` (stereo not drawn) [ID 593]: the “GBA EC1.5” value came out at 50 µM and the Emax is 136%.
Regarding `CN(CC/C(Cl)=N\OCC(O)CN1CCCCC1)C(=O)OC(C)(C)C` (stereo not drawn) [ID 599, tert-butyl (3-chloro-3-((2-hydroxy-3-(piperidin-1-yl)propoxy)imino)propyl)(methyl)carbamate], the “GBA EC1.5” value was 48 µM and the Emax was found to be 136%.
In the same order, the values of `CCCCCO[C@H]1CC[C@H](NC(=O)c2cnn3c(C)cc(C)nc23)CC1` [LTI-291, reference compound] are 112 µM and 232%.
For the compound “N-(2-hydroxy-3-(piperidin-1-yl)propoxy)-4-((6-methoxy-2-methylpyridin-3-yl)methyl)piperidine-4-carbimidoyl chloride tri-2,2,2-trifluoroacetate [ID 524]”, the “GBA EC1.5” value turned out to be 1 µM and the “GBA Emax” value amounted to 149%.
In the same order, the values of “N-(2-hydroxy-3-(piperidin-1-yl)propoxy)-4-((6-methylpyridin-3-yl)methyl)piperidine-4-carbimidoyl chloride tri-2,2,2-trifluoroacetate [ID 493]” are 18 µM and 279%.

(Values after patent US20240383853A1, “OXIMES AND THEIR USE IN TREATMENT OF GBA-RELATED DISEASES” (ZEVRA DENMARK A/S, priority 2021, published 2024).)
